Peptide text beside a SMILES is read from it.
What was measured:
HMLER = assay: cells; assay type: cell-based, human; conditions: 72 h
From the text: (§1) […], and MCF-10A cells were maintained in MEGM with supplements and growth factors bovine pituitary extract, hydrocortisone, human epidermal growth factor, insulin, and gentamicin/amphotericin-B.

HMLER‐shEcad = assay: cells; assay type: cell-based, human; conditions: 72 h
From the text: as §1

MCF‐10A = assay: cells; assay type: cell-based, human; conditions: 72 h
From the text: as §1

U2OS = assay type: cell-based, human; conditions: 72 h
HEK293T = assay: cells; assay type: cell-based, human; conditions: 72 h
[1] = Tryptophan fluorescent binding assay; conditions: tryptophan fluorescence; 50 µM peptide, lipid titrated 0-5000 µM; phosphate buffered saline 1X, pH 7.4; values as lipid per peptide
How it was run: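 Tryptophan fluorescence was used to follow binding of peptide, fixed at 50 µM, to large unilamellar vesicles of POPC:POPG (3:1 ratio) titrated into phosphate buffered saline (1X, pH 7.4). After 1 h incubation, spectra were taken on a BioTek Cytation 5 reader with excitation at 280 nm and emission at 300 to 450 nm (9 nm slits), averaging three scans.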

[2] = ANTS/DPX liposome leakage assay; conditions: 0.5 mM vesicles, peptide 0-20 µM, 3 h incubation, lipid per peptide; for Peptide Concentration-induced 50 % ANTS/DPX leakage at pH 4.8 (L/P), 3POPC/1POPG Vesicle / Peptide Concentration-induced 50 % ANTS/DPX leakage at pH 4.8 (L/P), POPC Vesicle: HCl-adjusted PBS 1X pH 4.8; for Peptide Concentration-induced 50 % ANTS/DPX leakage at pH 7.4 (L/P), 3POPC/1POPG Vesicle / Peptide Concentration-induced 50 % ANTS/DPX leakage at pH 7.4 (L/P), POPC Vesicle: PBS 1X pH 7.4, high ratio = more potent
How it was run: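 Extruded 0.1 µm POPC or POPC/POPG (3:1) vesicles were loaded with 5 mM ANTS and 12.5 mM DPX, gel-filtered, then used at 0.5 mM lipid with titrated peptide at pH 7.4 or pH 4.8 (acidified PBS). Leakage was read at ex 350/em 510 nm after 3 h against 10% Triton maximum, expressed as lipid/peptide ratio for 50% leakage.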

| SMILES | IC50 (HMLER) | IC50 (HMLER‐shEcad) | IC50 (MCF‐10A) | IC50 (U2OS) | IC50 (HEK293T) | Lipid Concentration-induced 50% Peptide Binding (L/P), 3POPC/1POPG Vesicle [1] | Lipid Concentration-induced 50% Peptide Binding (L/P), POPC Vesicle [1] | Peptide Concentration-induced 50 % ANTS/DPX leakage at pH 4.8 (L/P), 3POPC/1POPG Vesicle [2] | Peptide Concentration-induced 50 % ANTS/DPX leakage at pH 4.8 (L/P), POPC Vesicle [2] | Peptide Concentration-induced 50 % ANTS/DPX leakage at pH 7.4 (L/P), 3POPC/1POPG Vesicle [2] | Peptide Concentration-induced 50 % ANTS/DPX leakage at pH 7.4 (L/P), POPC Vesicle [2] |
| --- | --- | --- | --- | --- | --- | --- | --- | --- | --- | --- | --- |
| CC(C)C[C@H](NC(=O)CN)C(=O)N[C@@H](CC(C)C)C(=O)N[C@@H](CCCCN)C(=O)N[C@@H](CC(C)C)C(=O)N[C@@H](CC(C)C)C(=O)N[C@@H](CCCCN)C(=O)N[C@@H](CC(C)C)C(=O)N[C@@H](CC(C)C)C(=O)N[C@@H](CC(C)C)C(=O)N[C@@H](CCC(=O)O)C(=O)N[C@@H](C)C(=O)N[C@@H](C)C(=O)NCC(=O)N[C@@H](Cc1c[nH]c2ccccc12)C(N)=O [KKE] (H-GLLKLLKLLLEAAGW-NH2) | 2.05 ± 0.64 µM | 1.7 µM | 2.9 ± 0.57 µM | 12.8 ± 1.2 µM | 4.4 ± 0.14 µM | 0.44 L/P | 0.48 L/P | 131 L/P | 143 L/P | 346 L/P | 1133 L/P |
| CC(C)C[C@H](NC(=O)CN)C(=O)N[C@@H](CC(C)C)C(=O)N[C@@H](CCCCN)C(=O)N[C@@H](CC(C)C)C(=O)N[C@@H](CC(C)C)C(=O)N[C@@H](CCC(=O)O)C(=O)N[C@@H](CC(C)C)C(=O)N[C@@H](CC(C)C)C(=O)N[C@@H](CC(C)C)C(=O)N[C@@H](Cc1c[nH]cn1)C(=O)N[C@@H](C)C(=O)N[C@@H](C)C(=O)NCC(=O)N[C@@H](Cc1c[nH]c2ccccc12)C(N)=O [KEH] (H-GLLKLLELLLHAAGW-NH2) | 3.3 ± 0.42 µM | 2.35 ± 0.07 µM | 20 µM | 49.2 ± 5.3 µM | 5.65 ± 0.07 µM | 0.50 L/P | 1.00 L/P | 68 L/P | 188 L/P | 286 L/P | 995 L/P |
| CC(C)C[C@H](NC(=O)CN)C(=O)N[C@@H](CC(C)C)C(=O)N[C@@H](Cc1c[nH]cn1)C(=O)N[C@@H](CC(C)C)C(=O)N[C@@H](CC(C)C)C(=O)N[C@@H](Cc1c[nH]cn1)C(=O)N[C@@H](CC(C)C)C(=O)N[C@@H](CC(C)C)C(=O)N[C@@H](CC(C)C)C(=O)N[C@@H](CCCCN)C(=O)N[C@@H](C)C(=O)N[C@@H](C)C(=O)NCC(=O)N[C@@H](Cc1c[nH]c2ccccc12)C(N)=O [HHK] (H-GLLHLLHLLLKAAGW-NH2) | 3.15 ± 0.07 µM | 1.75 ± 0.21 µM | 5.6 ± 0.14 µM | 12.7 ± 1.91 µM | 5.25 ± 1.48 µM | 0.20 L/P | 0.68 L/P | 111 L/P | 149 L/P | 160 L/P | 1133 L/P |
| CC(C)C[C@H](NC(=O)CN)C(=O)N[C@@H](CC(C)C)C(=O)N[C@@H](CCC(=O)O)C(=O)N[C@@H](CC(C)C)C(=O)N[C@@H](CC(C)C)C(=O)N[C@@H](CCCCN)C(=O)N[C@@H](CC(C)C)C(=O)N[C@@H](CC(C)C)C(=O)N[C@@H](CC(C)C)C(=O)N[C@@H](Cc1c[nH]cn1)C(=O)N[C@@H](C)C(=O)N[C@@H](C)C(=O)NCC(=O)N[C@@H](Cc1c[nH]c2ccccc12)C(N)=O [EKH] (H-GLLELLKLLLHAAGW-NH2) | 2.75 ± 0.07 µM | 2.18 ± 0.31 µM | 7.9 ± 0.42 µM | 23.8 ± 0.81 µM | 6.65 ± 1.34 µM | 0.19 L/P | 0.75 L/P | 88 L/P | 55 L/P | 365 L/P | 608 L/P |
| CC(C)C[C@H](NC(=O)CN)C(=O)N[C@@H](CC(C)C)C(=O)N[C@@H](Cc1c[nH]cn1)C(=O)N[C@@H](CC(C)C)C(=O)N[C@@H](CC(C)C)C(=O)N[C@@H](CCCCN)C(=O)N[C@@H](CC(C)C)C(=O)N[C@@H](CC(C)C)C(=O)N[C@@H](CC(C)C)C(=O)N[C@@H](CCCCN)C(=O)N[C@@H](C)C(=O)N[C@@H](C)C(=O)NCC(=O)N[C@@H](Cc1c[nH]c2ccccc12)C(N)=O [HKK] (H-GLLHLLKLLLKAAGW-NH2) | 3.4 ± 0.71 µM | 2.6 ± 0.42 µM | 2.18 ± 0.39 µM | 12.23 ± 0.11 µM | 9.5 ± 0.99 µM | 0.14 L/P | 0.18 L/P | 106 L/P | 106 L/P | 90 L/P | 657 L/P |
| CC(C)C[C@H](NC(=O)CN)C(=O)N[C@@H](CC(C)C)C(=O)N[C@@H](CC(=O)O)C(=O)N[C@@H](CC(C)C)C(=O)N[C@@H](CC(C)C)C(=O)N[C@@H](Cc1c[nH]cn1)C(=O)N[C@@H](CC(C)C)C(=O)N[C@@H](CC(C)C)C(=O)N[C@@H](CC(C)C)C(=O)N[C@@H](CCC(=O)O)C(=O)N[C@@H](C)C(=O)N[C@@H](C)C(=O)NCC(=O)N[C@@H](Cc1c[nH]c2ccccc12)C(N)=O [DHE] (H-GLLDLLHLLLEAAGW-NH2) | 3.75 ± 0.92 µM | 2.8 ± 0.14 µM | 22.7 ± 4.31 µM | 17.2 ± 1.06 µM | 11.1 ± 1.91 µM | 0.72 L/P | 1.00 L/P | 469 L/P | 58 L/P | 581 L/P | 566 L/P |
| CC(C)C[C@H](NC(=O)CN)C(=O)N[C@@H](CC(C)C)C(=O)N[C@@H](CCC(=O)O)C(=O)N[C@@H](CC(C)C)C(=O)N[C@@H](CC(C)C)C(=O)N[C@@H](CCCCN)C(=O)N[C@@H](CC(C)C)C(=O)N[C@@H](CC(C)C)C(=O)N[C@@H](CC(C)C)C(=O)N[C@@H](CCC(=O)O)C(=O)N[C@@H](C)C(=O)N[C@@H](C)C(=O)NCC(=O)N[C@@H](Cc1c[nH]c2ccccc12)C(N)=O [EKE] (H-GLLELLKLLLEAAGW-NH2) | 1.8 ± 0.28 µM | 1.3 ± 0.14 µM | 8.8 µM | 8 ± 0.71 µM | 5.15 ± 0.21 µM | 1.63 L/P | 2.75 L/P | 438 L/P | 75 L/P | 657 L/P | 738 L/P |
